Laboratory results: patent publication US20140171389A1, “METHODS FOR TREATING CANCER” (THRESHOLD PHARMACEUTICALS, INC., priority 2011, published 2014)
Like-named read-outs stand apart in the source and are kept apart here.

Columns and labels:
HCT116 cell lines = assay: In vitro cytotoxicity (AlamarBlue) with or without ABT-888, HCT116; assay type: cell-based; conditions: Homo sapiens
Protocol: (§1) The effect of the PARP inhibitor, ABT-888, on TH-302 activity was investigated in three human cancer cell lines: human non small cell lung H460, human melanoma A375, and human colorectal carcinoma HCT116.
(§2) Cells were pretreated with ABT-888 for 1 h under normoxia, and then co-incubated with TH-302 for additional 2 h under either normoxia or hypoxia. After 3 days of incubation in the presence of ABT-888, cell viability was determined using AlamarBlue. For the temozolomide (TMZ) group, cells were co-treated with temozolomide and ABT-888 for 3 days after 1 h pretreatment with ABT-888.

UV41 cells = assay: Cytotoxicity in HDR impaired UV41 cells, 2 h treatment, alamar blue (Table 8); assay type: cell-based, chinese hamster; conditions: for IC50: Cricetulus griseus
Protocol: (§3) The role of homology-directed DNA repair (HDR) on TH-302 was investigated in wild type and HDR deficient chinese hamster ovary (CHO) cells. […] TH-302 activity can be modulated by pharmacological modulators of both reductases and DNA damage and repair pathways. TH-302 activity can be inhibited by the flavin reductase inhibitor DPI. TH-302 activity was not affected by the PARP inhibitor ABT-888.
(§4) The wild type AA8 cells and the HDR impaired irs1SF and UV41 cells were treated with TH-302 for 2 h, washed, and then incubated for 3 days. At the end of the incubation, viable cells were quantified using alamar blue.

[1] = Modulation of TH-302 activity by the flavin reductase inhibitor DPI; assay type: cell-based; conditions: with DPI
Description: as §3

irs1SF cells = assay: Cytotoxicity in HDR impaired irs1SF cells, 2 h treatment, alamar blue (Table 8); assay type: cell-based, chinese hamster; conditions: for IC50: Cricetulus griseus
Protocol: as §3, §4

AA8 cells = assay: Cytotoxicity in wild type AA8 cells, 2 h treatment, alamar blue (Table 8); assay type: cell-based, chinese hamster; conditions: for IC50: Cricetulus griseus
Protocol: as §3, §4

[2] = system: multiple human cancer cell lines; assay: Hypoxia-enhanced cytotoxicity in vitro; assay type: cell-based
Description: In these examples, pharmacological tools were utilized to test the underlying mechanisms of DNA repair processes involved in the cellular response to TH-302. In vitro cytotoxicity assays were used as the primary read-out.

H460 cell lines = assay: In vitro cytotoxicity (AlamarBlue) with or without ABT-888, H460; assay type: cell-based; conditions: Homo sapiens
Protocol: as §1, §2

A375 cell lines = assay: In vitro cytotoxicity (AlamarBlue) with or without ABT-888, A375; assay type: cell-based; conditions: Homo sapiens
Protocol: as §1, §2

AA8 = assay: Cytotoxicity in AA8 cells (Table 7); assay type: cell-based, chinese hamster; conditions: Cricetulus griseus
Description: (§5) In contrast, the activity of the monoalkylating agent temozolomide was enhanced by ABT-888 in these cancer cell lines (see, Tables 1, 3, and 5).

EM9 cells = assay: Cytotoxicity in EM9 cells deficient in base excision repair gene XRCC1 (Table 7); assay type: cell-based; conditions: for Fold difference in sensitivity (anoxia) / Fold difference in sensitivity (normoxia): AA8 versus EM9
Description: as §5

[3] = CHO-AA8, read-out: IC50 (μM) Anoxia AA8
[4] = CHO-AA8, read-out: IC50 (μM) Normoxia AA8
[5] = read-out: IC50 (μM) Normoxia EM9

Q: What does the source list for `Cn1c(COP(=O)(NCCBr)NCCBr)cnc1[N+](=O)[O-]` [TH-302]?
A: IC50 (HCT116 cell lines; HCT-116, read-out: IC50 (μM) Hypoxia): 0.1 µM; IC50 (HCT116 cell lines; HCT-116, read-out: IC50 (μM) Normoxia): 61 µM; IC50 (UV41 cells; N2, read-out: IC50 (μM) N2): 0.02 µM; IC50 (UV41 cells; air, read-out: IC50 (μM) Air): 16 µM; HCR (UV41 cells; ratio air/N2): 800; TH-302 activity in the presence of the flavin reductase inhibitor DPI [1]: inhibited; IC50 (irs1SF cells; N2, read-out: IC50 (μM) N2): 0.5 µM; IC50 (irs1SF cells; air, read-out: IC50 (μM) Air): 95 µM; HCR (irs1SF cells; ratio air/N2): 190; IC50 (AA8 cells; CHO-AA8, N2, read-out: IC50 (μM) N2): 1.1 µM; IC50 (AA8 cells; CHO-AA8, air, read-out: IC50 (μM) Air): 340 µM; HCR (AA8 cells; ratio air/N2): 310; hypoxia-enhanced cytotoxicity [2]: about 400 fold; IC50 (H460 cell lines; NCI-H460, read-out: IC50 (μM) Hypoxia): 0.2 µM; IC50 (H460 cell lines; NCI-H460, read-out: IC50 (μM) Normoxia): 47 µM; IC50 (A375 cell lines; A-375, read-out: IC50 (μM) Hypoxia): 1.5 µM; IC50 (A375 cell lines; A-375, read-out: IC50 (μM) Normoxia): 230 µM; IC50 (AA8; [3]): 10 µM; IC50 (AA8; [4]): > 1000 µM; Fold difference in sensitivity (anoxia) (EM9 cells): 1 fold; Fold difference in sensitivity (normoxia) (EM9 cells; normoxia): >1.3 fold; IC50 (EM9 cells; read-out: IC50 (μM) Anoxia EM9): 14 µM; IC50 (EM9 cells; [5]): 760 µM

Q: With `Cn1nnc2c(C(N)=O)ncn2c1=O` [Temozolomide, temozolomide, reference compound] as the compound, how does the IC50 (HCT116 cell lines; HCT-116, HCT116, normoxia, 3 days co-treatment after 1 h ABT-888 pretreatment, read-out: IC50 (μM), Normoxia) read?
A: 890 µM

Q: And the IC50 (H460 cell lines; NCI-H460, H460, normoxia, 3 days co-treatment after 1 h ABT-888 pretreatment, read-out: IC50 (μM), Normoxia)?
A: 540 µM

Q: What about the IC50 (A375 cell lines; A-375, A375, normoxia, 3 days co-treatment after 1 h ABT-888 pretreatment, read-out: IC50 (μM), Normoxia) of the same compound?
A: 510 µM

Q: And the IC50 (AA8; CHO-AA8, AA8, normoxia, read-out: IC50 (μM) Normoxia AA8)?
A: > 1000 µM

Q: What about the “Fold difference in sensitivity (normoxia)” value (EM9 cells; normoxia) of the same compound?
A: >5.9 fold

Q: What about the IC50 (EM9 cells; EM9, normoxia, read-out: IC50 (μM) Normoxia EM9) of the same compound?
A: 168 µM

Q: With `Nc1n[n+]([O-])c2ccccc2[n+]1[O-]` [Tirapazamine, tirapazamine] as the compound, how does the IC50 (AA8; [3]) read?
A: 50 µM

Q: What about the IC50 (AA8; [4]) of the same compound?
A: > 1000 µM

Q: And the “Fold difference in sensitivity (anoxia)” value (EM9 cells)?
A: 3 fold

Q: What about the IC50 (EM9 cells; read-out: IC50 (μM) Anoxia EM9) of the same compound?
A: 15 µM

Q: And the IC50 (EM9 cells; [5])?
A: > 1000 µM
